Measured values taken from PMC6234229, “The role of loops B and C in determining the potentiation of GABAA receptors by midazolam” (Pharmacology Research & Perspectives, 2018).
Several values for one entry are separate records, joined by “and”; a condition that tells them apart may be missing. Identical values can stand only once.

Experiments:
Experiment in all cases: Midazolam potentiation of EC10 GABA currents, whole-cell patch clamp, HEK293T
Type in all cases: cell-based
[1] = target: T1, α3(T187P)β2γ2 GABAA receptor (Homo sapiens, UniProt P18507+P34903+P47870, T215P)
T1 construct: expressed in transfected cells; host or cells: HEK293T
T1 sequence (P34903 29-492 T215P): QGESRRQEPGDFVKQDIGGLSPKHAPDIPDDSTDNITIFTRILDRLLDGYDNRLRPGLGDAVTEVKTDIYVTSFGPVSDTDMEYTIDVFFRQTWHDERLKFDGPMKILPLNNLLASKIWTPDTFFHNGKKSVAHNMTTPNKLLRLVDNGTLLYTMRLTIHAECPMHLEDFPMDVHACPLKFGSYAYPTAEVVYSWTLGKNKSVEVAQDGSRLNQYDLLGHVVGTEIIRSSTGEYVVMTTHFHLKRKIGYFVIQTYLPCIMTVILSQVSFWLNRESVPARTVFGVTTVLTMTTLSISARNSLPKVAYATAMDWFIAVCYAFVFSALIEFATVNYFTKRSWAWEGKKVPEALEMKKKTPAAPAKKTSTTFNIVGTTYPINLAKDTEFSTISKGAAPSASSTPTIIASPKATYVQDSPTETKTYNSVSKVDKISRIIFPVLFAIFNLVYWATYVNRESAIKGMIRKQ
T1 sequence (P47870 25-512 limits assumed): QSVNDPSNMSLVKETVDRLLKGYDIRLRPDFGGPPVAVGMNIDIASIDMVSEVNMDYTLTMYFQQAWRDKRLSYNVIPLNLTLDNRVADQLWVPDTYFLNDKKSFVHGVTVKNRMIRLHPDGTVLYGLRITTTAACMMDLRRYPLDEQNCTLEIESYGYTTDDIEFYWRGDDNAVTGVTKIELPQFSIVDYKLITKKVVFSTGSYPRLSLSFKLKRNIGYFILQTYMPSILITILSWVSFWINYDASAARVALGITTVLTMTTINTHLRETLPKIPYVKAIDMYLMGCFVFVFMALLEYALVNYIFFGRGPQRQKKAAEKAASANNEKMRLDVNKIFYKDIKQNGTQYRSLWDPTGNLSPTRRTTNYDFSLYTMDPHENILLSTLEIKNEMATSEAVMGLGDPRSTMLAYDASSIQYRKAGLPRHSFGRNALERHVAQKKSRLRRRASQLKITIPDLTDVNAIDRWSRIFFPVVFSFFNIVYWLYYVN
T1 sequence (P18507 40-467 isoform P18507-1 limits assumed, stated change not applied): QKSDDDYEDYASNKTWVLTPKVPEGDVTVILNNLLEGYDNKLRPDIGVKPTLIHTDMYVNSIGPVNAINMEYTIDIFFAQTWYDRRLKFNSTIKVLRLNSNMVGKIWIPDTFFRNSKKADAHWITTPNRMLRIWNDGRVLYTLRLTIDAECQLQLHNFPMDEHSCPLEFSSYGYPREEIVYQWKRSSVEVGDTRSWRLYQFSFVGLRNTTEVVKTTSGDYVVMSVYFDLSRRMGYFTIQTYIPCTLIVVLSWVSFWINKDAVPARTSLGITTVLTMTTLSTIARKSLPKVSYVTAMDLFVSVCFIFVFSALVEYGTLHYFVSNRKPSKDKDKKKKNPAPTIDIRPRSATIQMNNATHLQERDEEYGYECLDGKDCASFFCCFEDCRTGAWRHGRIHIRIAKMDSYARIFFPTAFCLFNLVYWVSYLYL
Text: (§1) Human (Homo sapiens) GABAA subunits (α1‐6, β2, γ2s) were subcloned into pcDNA3.1+ vectors with a cytomegalovirus (CMV) promoter. The hβ2 and hα3 sequences were humanized rat (Rattus norvegicus) cDNA with amino acid substitutions made to match the human protein sequence. The α1‐3, α5, β2, and γ2s subunits were a generous gift from Neil L. Harrison (Columbia University Medical Center, NY). The α4 subunit was obtained from GenScript (Piscataway, NJ), and the α6 subunit was a generous gift from Robert L. McDonald (Vanderbilt University, TN). All point mutations (listed in Figure 1C) were introduced using the QuikChange Lightening site‐directed mutagenesis kit (Agilent Technologies, Santa Clara, CA) according to the manufacturer's instructions and were confirmed by sequencing (Eurofins MWG Operon, Louisville, KY).
(§2) Human embryonic kidney cells containing the SV40 T‐antigen (HEK293T) were acquired from American Type Culture Collection (ATCC®, Manassas, VA), catalogue number, CRL3216. HEK293T cells were maintained at 37°C and 5% CO2 in Eagle Minimum Essential Medium (MEM) supplemented with 5% fetal bovine serum (Atlanta Biologicals Inc., Flowery Branch, GA), 40 μM L‐glutamine, 100 U/mL penicillin and 0.1 mM streptomycin. Cells were passaged regularly when they reached 70% confluency using trypsin. Cells were not passaged more than 22 times. New cells were revived from frozen stocks at passage 2‐4. Cells used for in vitro electrophysiology experiments were grown on poly‐D‐lysine‐coated glass coverslips (No.2, VWR, Radnor, PA) and transfected with X‐tremeGENE (Roche Diagnostics, Indianapolis, IN) with the desired receptor subunit cDNAs at a 1:1:1 ratio to express αxβ2γ2s receptors (2 μg total cDNA) and with 0.5 μg green fluorescent protein (GFP) as an expression marker. The γ2s incorporation into receptors was tested with zinc inhibition assays regularly.24 Patch clamp experiments were performed on cells at 24‐72 hours post‐transfection. All experiments were performed at 22°C. Experiments consisted of at least five cells recorded per day from at least two transfections across 3‐4 days to control for cell health and transfection efficiency. At least three cells expressing wild‐type receptors were recorded on days that mutant receptors were tested to provide a time‐matched expression control. All reagents were purchased from Sigma‐Aldrich (St. Louis, MO) unless otherwise stated.
(§3) Extracellular solution contained 161 mM NaCl, 3 mM KCl, 1 mM MgCl2, 1.5 mM CaCl2, 10 mM HEPES, and 6 mM D‐glucose, adjusted to pH 7.4 with NaOH (320‐330 mOsm). […] The perfusion system was controlled by protocols written in pClamp 9 (Molecular Devices, LLC., Sunnyvale, CA). Whole‐cell currents were recorded at ‐60 mV, filtered at 100 Hz and sampled at 200 Hz with a MultiClamp 700B amplifier (Molecular Devices, LLC) and DigiData 1322A (Molecular Devices, LLC) digitizer. […] Cells were recorded with the midazolam protocol no more than two times to avoid desensitization and incomplete washout or irreversible modulation.
(§4) Recordings were analyzed using MATLAB (Math Works, Inc., Natick, MA). […] The maximum peak current, EC50 and Hill coefficient were estimated for assays from each cell. When Hill parameters are estimated from whole‐cell recordings, the changes in the parameters across receptor conditions can be ascribed to the following changes in receptor physiology. Changes in maximum current can be due to changes in the single‐channel conductance or the rate of desensitization. Changes in cell surface receptor expression can cause minor changes in maximum current, but are unlikely to occur in the time course of our experimental protocol. […] More often minor changes in the Hill coefficient are attributed to the altered homogeneity in the receptor population expressed by the HEK293T cell. For example, a shallower Hill coefficient could be caused by a shift in the population of receptors from mostly αβγ receptors to a combination of both αβ and αβγ receptors.

α3β2γ2 GABAA receptor = target: T2, α3β2γ2 GABAA receptor (Homo sapiens, UniProt P18507+P34903+P47870)
T2 construct: expressed in transfected cells; host or cells: HEK293T
T2 sequence (P34903 29-492): as the sequence (P34903 29-492 T215P) above, with P187T counted along it
T2 sequence (P47870 25-512 limits assumed): as the sequence (P47870 25-512 limits assumed) above
T2 sequence (P18507 40-467 isoform P18507-1 limits assumed): as the sequence (P18507 40-467 isoform P18507-1 limits assumed, stated change not applied) above
Text: as §1, §2, §3, §4

[2] = target: T3, α1(H102R)β2γ2 GABAA receptor (Homo sapiens, UniProt P14867+P18507+P47870, H129R)
T3 construct: expressed in transfected cells; host or cells: HEK293T
T3 sequence (P14867 28-456 H129R): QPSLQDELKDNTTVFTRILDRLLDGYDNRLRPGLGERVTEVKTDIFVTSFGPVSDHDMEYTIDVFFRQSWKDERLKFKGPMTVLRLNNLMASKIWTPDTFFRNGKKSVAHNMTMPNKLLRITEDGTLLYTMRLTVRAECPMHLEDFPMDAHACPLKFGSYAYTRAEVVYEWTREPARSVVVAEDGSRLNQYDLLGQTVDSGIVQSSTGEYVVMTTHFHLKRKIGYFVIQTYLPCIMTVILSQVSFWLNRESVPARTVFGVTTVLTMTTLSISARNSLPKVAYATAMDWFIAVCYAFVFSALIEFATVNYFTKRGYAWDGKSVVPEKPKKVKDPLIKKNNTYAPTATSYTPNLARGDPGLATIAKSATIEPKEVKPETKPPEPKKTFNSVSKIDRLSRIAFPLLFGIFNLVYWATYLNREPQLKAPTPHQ
T3 sequence (P47870 25-512 limits assumed): as the sequence (P47870 25-512 limits assumed) above
T3 sequence (P18507 40-467 isoform P18507-1 limits assumed, stated change not applied): as the sequence (P18507 40-467 isoform P18507-1 limits assumed, stated change not applied) above
Text: as §1, §2, §3, §4

α5β2γ2 GABAA receptor = target: T4, α5β2γ2 GABAA receptor (Homo sapiens, UniProt P18507+P31644+P47870)
T4 construct: expressed in transfected cells; host or cells: HEK293T
T4 sequence (P31644 32-462): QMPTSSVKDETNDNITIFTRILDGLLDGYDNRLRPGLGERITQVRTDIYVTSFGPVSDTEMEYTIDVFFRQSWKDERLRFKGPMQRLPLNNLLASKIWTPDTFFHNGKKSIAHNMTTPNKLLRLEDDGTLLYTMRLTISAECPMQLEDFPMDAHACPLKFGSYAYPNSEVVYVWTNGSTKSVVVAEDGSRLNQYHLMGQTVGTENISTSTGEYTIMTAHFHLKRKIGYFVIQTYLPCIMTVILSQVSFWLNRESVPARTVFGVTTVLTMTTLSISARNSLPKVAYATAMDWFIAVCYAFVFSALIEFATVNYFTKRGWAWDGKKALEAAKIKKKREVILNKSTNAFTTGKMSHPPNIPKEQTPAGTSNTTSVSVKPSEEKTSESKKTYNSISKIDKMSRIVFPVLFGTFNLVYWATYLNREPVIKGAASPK
T4 sequence (P47870 26-474 isoform P47870-1 limits assumed): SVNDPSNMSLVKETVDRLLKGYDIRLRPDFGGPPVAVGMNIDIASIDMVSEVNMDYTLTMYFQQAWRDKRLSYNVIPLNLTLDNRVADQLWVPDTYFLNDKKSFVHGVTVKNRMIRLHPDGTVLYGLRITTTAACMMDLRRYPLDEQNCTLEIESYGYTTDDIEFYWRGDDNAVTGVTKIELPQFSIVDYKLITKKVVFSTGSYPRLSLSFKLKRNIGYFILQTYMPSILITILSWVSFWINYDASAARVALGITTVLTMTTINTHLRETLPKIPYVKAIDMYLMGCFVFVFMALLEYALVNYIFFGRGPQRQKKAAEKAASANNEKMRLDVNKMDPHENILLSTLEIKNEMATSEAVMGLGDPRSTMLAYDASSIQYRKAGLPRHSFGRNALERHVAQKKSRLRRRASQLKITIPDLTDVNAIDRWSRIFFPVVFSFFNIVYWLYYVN
T4 sequence (P18507 40-467 isoform P18507-1 limits assumed): as the sequence (P18507 40-467 isoform P18507-1 limits assumed, stated change not applied) above
Text: as §1, §2, §3, §4

α6β2γ2 GABAA receptor = target: T5, α6β2γ2 GABAA receptor (Homo sapiens, UniProt P18507+P47870+Q16445); conditions: for Midazolam potentiation (%): α6β2γ2
T5 construct: expressed in transfected cells; host or cells: HEK293T
T5 sequence (Q16445 20-453): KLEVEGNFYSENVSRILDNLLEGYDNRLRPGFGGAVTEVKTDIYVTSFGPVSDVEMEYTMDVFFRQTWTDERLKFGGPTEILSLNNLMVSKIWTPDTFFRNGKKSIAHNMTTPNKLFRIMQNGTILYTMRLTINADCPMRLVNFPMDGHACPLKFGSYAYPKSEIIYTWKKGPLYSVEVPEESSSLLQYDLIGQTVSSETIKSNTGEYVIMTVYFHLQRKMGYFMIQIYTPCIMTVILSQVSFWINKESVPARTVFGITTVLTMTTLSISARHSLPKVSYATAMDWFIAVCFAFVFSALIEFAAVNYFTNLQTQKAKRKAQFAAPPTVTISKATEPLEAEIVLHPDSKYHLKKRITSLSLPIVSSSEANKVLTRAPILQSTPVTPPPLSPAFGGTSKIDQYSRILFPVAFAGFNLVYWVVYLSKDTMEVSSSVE
T5 sequence (P47870 26-474 isoform P47870-1 limits assumed): as the sequence (P47870 26-474 isoform P47870-1 limits assumed) above
T5 sequence (P18507 40-467 isoform P18507-1 limits assumed): as the sequence (P18507 40-467 isoform P18507-1 limits assumed, stated change not applied) above
Text: as §1, §2, §3, §4

[3] = target: T6, α1(S206I)β2γ2 GABAA receptor (Homo sapiens, UniProt P14867+P18507+P47870, S233I)
T6 construct: expressed in transfected cells; host or cells: HEK293T
T6 sequence (P14867 28-456 S233I): as the sequence (P14867 28-456 H129R) above, with R102H, S206I counted along it
T6 sequence (P47870 25-512 limits assumed, stated change not applied): as the sequence (P47870 25-512 limits assumed) above
T6 sequence (P18507 40-467 isoform P18507-1 limits assumed, stated change not applied): as the sequence (P18507 40-467 isoform P18507-1 limits assumed, stated change not applied) above
Text: as §1, §2, §3, §4

[4] = target: T7, α2(S205I)β2γ2 GABAA receptor (Homo sapiens, UniProt P18507+P47869+P47870, S233I)
T7 construct: expressed in transfected cells; host or cells: HEK293T
T7 sequence (P47869 29-451 S233I): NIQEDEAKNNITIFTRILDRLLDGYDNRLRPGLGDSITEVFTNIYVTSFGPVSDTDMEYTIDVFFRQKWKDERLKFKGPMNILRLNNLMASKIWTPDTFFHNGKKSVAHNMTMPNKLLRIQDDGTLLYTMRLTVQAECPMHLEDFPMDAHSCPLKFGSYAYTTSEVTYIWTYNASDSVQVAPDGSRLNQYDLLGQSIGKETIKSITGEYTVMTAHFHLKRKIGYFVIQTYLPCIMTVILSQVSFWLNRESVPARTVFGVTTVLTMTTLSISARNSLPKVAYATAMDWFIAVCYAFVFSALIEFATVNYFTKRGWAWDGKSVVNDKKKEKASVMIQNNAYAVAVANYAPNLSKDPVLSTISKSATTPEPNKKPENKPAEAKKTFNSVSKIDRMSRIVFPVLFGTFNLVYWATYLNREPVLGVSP
T7 sequence (P47870 25-512 limits assumed, stated change not applied): as the sequence (P47870 25-512 limits assumed) above
T7 sequence (P18507 40-467 isoform P18507-1 limits assumed, stated change not applied): as the sequence (P18507 40-467 isoform P18507-1 limits assumed, stated change not applied) above
Text: as §1, §2, §3, §4

Cc1ncc2n1-c1ccc(Cl)cc1C(c1ccccc1F)=NC2 [midazolam]
EC50 [1]: 55.2 ± 2.91 nM
Midazolam potentiation (%) ([1]; 10 nM MDZ + EC10 GABA, α3(T187P)): 23.71 ± 6.37%
Midazolam potentiation (%) ([1]; 50 nM MDZ + EC10 GABA, α3(T187P)): 92.47 ± 12.51%
Midazolam potentiation (%) ([1]; 100 nM MDZ + EC10 GABA, α3(T187P)): 168.56 ± 23.08%
Midazolam potentiation (%) ([1]; 500 nM MDZ + EC10 GABA, α3(T187P)): 212.97 ± 30.06%
Midazolam potentiation (%) ([1]; 1000 nM MDZ + EC10 GABA, α3(T187P)): 213.30 ± 30.99%
Max potentiation (%) ([1]; α3(T187P), Hill fit, midazolam 10-1000 nM + EC10 GABA): 219.6 ± 32.3%
Hill coefficient ([1]; α3(T187P), midazolam Hill fit): 1.963 ± 0.224
Midazolam potentiation (%) (α3β2γ2 GABAA receptor; 10 nM MDZ + EC10 GABA): 37.98 ± 5.40%
Midazolam potentiation (%) (α3β2γ2 GABAA receptor; 50 nM MDZ + EC10 GABA): 132.92 ± 12.09%
Midazolam potentiation (%) (α3β2γ2 GABAA receptor; 100 nM MDZ + EC10 GABA): 221.10 ± 19.12%
Midazolam potentiation (%) (α3β2γ2 GABAA receptor; 500 nM MDZ + EC10 GABA): 279.18 ± 24.71%
Midazolam potentiation (%) (α3β2γ2 GABAA receptor; 1000 nM MDZ + EC10 GABA): 281.17 ± 24.73%
EC50 (α3β2γ2 GABAA receptor; EC50 (nM), midazolam potentiation of EC10 GABA): 46.4 nM
Max potentiation (%) (α3β2γ2 GABAA receptor; Hill fit, midazolam 10-1000 nM + EC10 GABA): 267.8 ± 20.3%
Hill coefficient (α3β2γ2 GABAA receptor; midazolam Hill fit): 1.503 ± 0.117
responsiveness to midazolam potentiation [2]: abolished the ability of receptors to respond to midazolam potentiation
Midazolam potentiation (%) ([2]; 10 nM MDZ + EC10 GABA): 8.10 ± 3.48%
Midazolam potentiation (%) ([2]; 50 nM MDZ + EC10 GABA): 13.07 ± 4.69%
Midazolam potentiation (%) ([2]; 100 nM MDZ + EC10 GABA): 16.99 ± 4.42%
Midazolam potentiation (%) ([2]; 500 nM MDZ + EC10 GABA): 26.78 ± 5.31%
Midazolam potentiation (%) ([2]; 1000 nM MDZ + EC10 GABA): 28.87 ± 6.18%
EC50 (α5β2γ2 GABAA receptor): 52.8 ± 3.48 nM
Midazolam potentiation (%) (α5β2γ2 GABAA receptor; 10 nM MDZ + EC10 GABA, α5β2γ2): 20.47 ± 10.62%
Midazolam potentiation (%) (α5β2γ2 GABAA receptor; 50 nM MDZ + EC10 GABA, α5β2γ2): 63.82 ± 19.54%
Midazolam potentiation (%) (α5β2γ2 GABAA receptor; 100 nM MDZ + EC10 GABA, α5β2γ2): 113.29 ± 28.44%
Midazolam potentiation (%) (α5β2γ2 GABAA receptor; 500 nM MDZ + EC10 GABA, α5β2γ2): 130.90 ± 29.52%
Midazolam potentiation (%) (α5β2γ2 GABAA receptor; 1000 nM MDZ + EC10 GABA, α5β2γ2): 123.12 ± 26.08%
Max potentiation (%) (α5β2γ2 GABAA receptor; α5β2γ2, Hill fit, midazolam 10-1000 nM + EC10 GABA): 107.9 ± 20.3%
Hill coefficient (α5β2γ2 GABAA receptor; α5β2γ2, midazolam Hill fit): 2.632 ± 0.329
Midazolam potentiation (%) (α6β2γ2 GABAA receptor; 10 nM MDZ + EC10 GABA): 14.66 ± 3.92%
Midazolam potentiation (%) (α6β2γ2 GABAA receptor; 50 nM MDZ + EC10 GABA): 14.55 ± 3.86%
Midazolam potentiation (%) (α6β2γ2 GABAA receptor; 100 nM MDZ + EC10 GABA): 14.58 ± 4.87%
Midazolam potentiation (%) (α6β2γ2 GABAA receptor; 500 nM MDZ + EC10 GABA): 11.15 ± 6.25%
Midazolam potentiation (%) (α6β2γ2 GABAA receptor; 1000 nM MDZ + EC10 GABA): 23.34 ± 4.23%
responsiveness to midazolam potentiation (α6β2γ2 GABAA receptor; wildtype α6β2γ2): no notable midazolam potentiation
EC50 [3]: 59.8 ± 4.11 nM
Midazolam potentiation (%) ([3]; 10 nM MDZ + EC10 GABA, α1(S206I)): 13.37 ± 5.70%
Midazolam potentiation (%) ([3]; 50 nM MDZ + EC10 GABA, α1(S206I)): 44.00 ± 10.96%
Midazolam potentiation (%) ([3]; 100 nM MDZ + EC10 GABA, α1(S206I)): 80.14 ± 17.04%
Midazolam potentiation (%) ([3]; 500 nM MDZ + EC10 GABA, α1(S206I)): 107.07 ± 22.95%
Midazolam potentiation (%) ([3]; 1000 nM MDZ + EC10 GABA, α1(S206I)): 108.21 ± 24.13%
Max potentiation (%) ([3]; α1(S206I), Hill fit, midazolam 10-1000 nM + EC10 GABA): 135.8 ± 23.8% and 135.8 ± 23.78 %
Hill coefficient ([3]; α1(S206I), midazolam Hill fit): 1.568 ± 0.199
EC50 [4]: 41.7 ± 4.99 nM
Midazolam potentiation (%) ([4]; 10 nM MDZ + EC10 GABA, α2(S205I)): 21.06 ± 6.24%
Midazolam potentiation (%) ([4]; 50 nM MDZ + EC10 GABA, α2(S205I)): 54.26 ± 10.25%
Midazolam potentiation (%) ([4]; 100 nM MDZ + EC10 GABA, α2(S205I)): 86.20 ± 14.74%
Midazolam potentiation (%) ([4]; 500 nM MDZ + EC10 GABA, α2(S205I)): 102.63 ± 19.49%
Midazolam potentiation (%) ([4]; 1000 nM MDZ + EC10 GABA, α2(S205I)): 97.62 ± 20.12%
Max potentiation (%) ([4]; α2(S205I), Hill fit, midazolam 10-1000 nM + EC10 GABA): 116.4 ± 23.0%
Hill coefficient ([4]; α2(S205I), midazolam Hill fit): 1.362 ± 0.140
